We go through 19 compounds from US11845724B2, “USP30 inhibitors and uses thereof” (Vincere Biosciences, Inc., priority 2019, dated 2023).

Broadly, the IC50 is the concentration that gives 50% inhibition.

Assay [1] has as its target recombinant USP30 (amino acids 57-517 of the human sequence) (Homo sapiens (Human), UniProt Q70CQ3). The assay is described as follows: In vitro USP30 biochemical assay (Ubiquitin-Rhodamine).
Description: In vitro biochemical assay to establish the potency of compounds for USP30 inhibition: a 384-well plate assay using a fluorophore tagged substrate of USP30 was used for in vitro screening of compounds. Each compound was tested at 10 different concentrations (0.5 to 10,000 nM) in duplicate wells. Compounds were pre-incubated at 25° C. for 30 min in an assay buffer consisting of 20 mM Tris/HCl, pH8.0, 1 mM GSH, 0.01% Triton X-100, 0.03% BGG and 1.5 nM recombinant USP30 (amino acids 57-517 of the human sequence with a C-terminal 6-His tag). Following the pre-incubation, Ubiquitin-Rhodamine substrate dissolved in the assay buffer was added at the final concentration of 25 nM to each well and plates were incubated at 25° C. for an additional 75 minutes. The reaction was stopped by adding 10 mM citric acid and fluorescence was read using excitation wavelength 485 nm, emission of 535 nm. Data were analyzed using Graph Pad Prism software with a four-parameter (floating slope) fit to log concentration data to determine IC50s.
Assay [2] concerns differentiated RenCell VM. The assay is described as follows: In-cell Tom20 loss assay. The class given is cell-based. To be noted: 20 h after compound addition. On the procedure: To evaluate Tom20 loss following treatment with compounds and/or antimycin/oligomycin, a96-well plate assay was performed on differentiated RenCell VM. These were seeded into laminin-coated 96-well plates at 5000 cells/well in normal growth medium (ReNcell NSC maintenance medium+20 ng/ml FDF-2 and 20 ng/ml EGF). After 3 days, growth medium was replaced with differentiation medium (ReNCell NSC medium+0.1 mM dibutyryl cAMP and 2 ng/ml GDNF). On days 1 and 4 following addition of differentiation medium, the media was removed and replaced with fresh differentiation medium. On the 7th day compounds or DMSO were added, and 1 hour later, some wells also received additions of oligomycin (1 uM and antimycin (1 uM). 20 h after compound addition, cells were fixed by adding formaldehyde to a final concentration of […], incubated 20 minutes at room temperature, then washed with PBS. Blocking buffer (3% bovine serum albumin, 2% fetal bovine serum, 0.2% Triton X100 in PBS) was added to all wells for two hours, then removed and replaced with blocking buffer containing antibody against Tom20 overnight. After washing with PBS, secondary antibody (Donkey anti-mouse conjugated to Cy3) was added along with DAPI to mark nuclei, and incubated two hours. After again washing with PBS, cells were imaged using GE INCell 6000 at 40× and quantified using HCA-based quantification algorithm of fluorescence density×area normalized to the number of nuclei.

The target of assay [3] is T1, USP30 (Homo sapiens (Human), UniProt Q70CQ3). The assay is described as follows: Dundee MALDI-TOF mass spectrometry assay (IC50). To be noted: USP30 25 ng/μl, K48-linked diubiquitin 5.6 μM. The class given is biochemical. Put shortly:
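USP30 (25 ng/μl) preincubated with compound 5 min at RT in Tris/BSA/DTT buffer, then K48-linked diubiquitin (5.6 μM) added for 45 min at RT. Stopped with 2% TFA; cleavage quantified by MALDI-TOF mass spectrometry to give IC50.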

Assay [4] has as its target T1, USP30. Briefly: Dundee MALDI-TOF mass spectrometry assay (% DUB activity remaining at 1 μM). The class given is biochemical. The conditions noted are these: % DUB activity remaining at compound concentration of 1 μM; avg; read-out: Dundee % Activity at 1 μM (avg in vitro MS assay). Here is the method: Compounds were tested in a MALDI-TOF assay based on the paper by Ritorto et al. (Ritorto et al. Screening of DUB activity and specificity by MALDI-TOF mass spectrometry. Nat. Commun. 5:4763).
USP30 (25 ng/μl) tested against K48-linked diubiquitin (5.6 μM). USP30 was diluted in a buffer containing 40 mM Tris, 0.01% BSA, 1 mM DTT and K48 in 40 mM Tris, 0.01% BSA.
The compounds were pre-incubated with the USP30 for 5 mins at room temp before the K48 dimer addition. The assay mixture was then incubated for 45 mins at room temp. The assay was stopped by the addition of TFA to a final concentration of 2% (v/v).
Acidified samples of the DUB assays were mixed with 0.5 mM 15N-ubiquitin and then with one part of 2% (v/v) TFA and one part of 2,5 DHAP matrix solution (7.6 mg of 2,5 DHAP in […] ethanol and […] of an aqueous 12 mg ml 1 diammonium hydrogen citrate). Then 250 nl of these solutions were spotted onto an MTP AnchorChip 1,536 TF and this is analysed on the Bruker rapifleX MALDI-TOF.
Table 22 presents the Dundee MALDI-TOF values expressed as % DUB activity remaining at a compound concentration of 1 μM.

[5] abbreviates: USP30 IC50 μM (avg), Ubiquitin-Rhodamine substrate 25 nM, 1.5 nM recombinant USP30.
The mark [6] stands for this setting: read-out: USP30 IC50 μM (avg), Ubiquitin-Rhodamine substrate 25 nM, 1.5 nM recombinant USP30.
Where [7] appears, read: avg, read-out: Dundee IC50 μM (avg in vitro MS assay).
[8] abbreviates: Dundee IC50 μM (avg in vitro MS assay).

The structures appear in SMILES notation. “And” between values parts separate entries of the source, which are not always exact repeats. Equal values may be shown once. Read-outs that look alike come from different tables or passages of the source.

Sequence of recombinant USP30 (amino acids 57-517 of the human sequence) (Q70CQ3 57-517): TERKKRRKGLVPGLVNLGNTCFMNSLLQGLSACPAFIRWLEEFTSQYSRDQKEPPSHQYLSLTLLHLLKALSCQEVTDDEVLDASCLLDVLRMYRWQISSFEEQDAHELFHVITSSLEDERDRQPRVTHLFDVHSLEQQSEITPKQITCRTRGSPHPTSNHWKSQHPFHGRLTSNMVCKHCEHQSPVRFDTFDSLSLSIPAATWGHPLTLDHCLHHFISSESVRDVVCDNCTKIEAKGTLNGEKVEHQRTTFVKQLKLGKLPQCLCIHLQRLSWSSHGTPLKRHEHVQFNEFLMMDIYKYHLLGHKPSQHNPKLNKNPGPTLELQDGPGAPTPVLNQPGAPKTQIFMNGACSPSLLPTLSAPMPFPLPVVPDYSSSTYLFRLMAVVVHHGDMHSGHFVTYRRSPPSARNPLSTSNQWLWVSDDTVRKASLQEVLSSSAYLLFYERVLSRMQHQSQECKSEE
T1 sequence (Q70CQ3 whole entry): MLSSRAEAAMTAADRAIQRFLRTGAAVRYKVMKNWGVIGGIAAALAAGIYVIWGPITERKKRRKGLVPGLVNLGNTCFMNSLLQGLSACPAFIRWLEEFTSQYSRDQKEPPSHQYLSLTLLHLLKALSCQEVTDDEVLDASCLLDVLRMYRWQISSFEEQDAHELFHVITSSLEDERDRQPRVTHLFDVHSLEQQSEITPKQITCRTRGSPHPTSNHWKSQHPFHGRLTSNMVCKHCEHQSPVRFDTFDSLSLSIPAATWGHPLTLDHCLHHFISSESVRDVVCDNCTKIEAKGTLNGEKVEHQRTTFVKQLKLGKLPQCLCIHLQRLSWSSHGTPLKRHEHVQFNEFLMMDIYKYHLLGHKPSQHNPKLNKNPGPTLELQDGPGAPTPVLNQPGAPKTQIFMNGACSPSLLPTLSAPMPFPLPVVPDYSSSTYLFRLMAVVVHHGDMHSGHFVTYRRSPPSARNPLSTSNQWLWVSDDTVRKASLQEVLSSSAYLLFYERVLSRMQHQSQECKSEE

Consider `O=C(N[C@@H](Cc1ccccc1)C(=O)Nc1ccc(S(=O)(=O)NC23CC(C2)C3)cc1)c1ccc(F)cc1` [Compound I-11, (S)-N-(1-(4-(N-Bicyclo[1.1.1]pentan-1-ylsulfamoyl)phenylamino)-1-oxo-3-phenylpropan-2-yl)-4-fluorobenzamide], for which the IC50 in assay [1] (setting [5]) was 0.05 to 1 µM; in assay [1] (setting [6]) it was 0.05 to 1 µM; in assay [2], at most 0.5 µM; in assay [3] (setting [7]), < 0.05 µM and 0.05 to 1 µM.

Regarding `CC(C)(C)NC(c1ccc(NC(=O)[C@H](Cc2ccccc2)NC(=O)c2ccc(F)cc2)cc1)C(F)(F)F` (stereo partly drawn) [Compound I-18, N-((2S)-1-(4-(1-(tert-butylamino)-2,2,2-trifluoroethyl)phenylamino)-1-oxo-3-phenylpropan-2-yl)-4-fluorobenzamide], the IC50 in assay [1] (setting [6]) and in assay [3] (setting [8]) was over 10 µM in each case. Besides, the activity at 1 µM in assay [4] fell in the range of 50 to 75%.

Regarding `CC(C)(C)NS(=O)(=O)c1ccc(NC(=O)C2(NC(=O)c3ccc(F)cc3)Cc3ccccc3C2)cc1` [Compound I-19, N-(4-(N-tert-butylsulfamoyl)phenyl)-2-(4-fluorobenzamido)-2,3-dihydro-1H-indene-2-carboxamide], the IC50 in assay [1] (setting [5]) and in assay [3] (setting [7]) was 0.05 to 1 µM throughout. For the same compound, the activity at 1 µM in assay [4] was 25 to 50%.

For `C[C@@H](NS(=O)(=O)c1ccc(NC(=O)[C@H](Cc2ccccc2)NC(=O)c2ccc(F)cc2)cc1)C(F)(F)F` [Compound I-26, 4-fluoro-N-((S)-1-oxo-3-phenyl-1-(4-(N-((R)-1,1,1-trifluoropropan-2-yl)sulfamoyl)phenylamino)propan-2-yl)benzamide], the IC50 is 0.05 to 1 µM in assay [1] (setting [5]) and under 0.05 µM in assay [3] (setting [7]). Further, in assay [4], the activity at 1 µM is 0 to 25%.

As to `O=C(N[C@@H](Cc1ccccc1)C(=O)Nc1ccc(S(=O)(=O)NC2CCOCC2)cc1)c1ccc(F)cc1` [Compound I-34, (S)-4-fluoro-N-(1-oxo-3-phenyl-1-(4-(N-(tetrahydro-2H-pyran-4-yl)sulfamoyl)phenylamino)propan-2-yl)benzamide], the figures for the IC50 in assay [1] (setting [6]), in assay [2] and in assay [3] (setting [7]) were under 0.05 µM, at most 0.5 µM and under 0.05 µM, respectively.

For the compound `CN(C(=O)c1ccc(F)cc1)[C@@H](Cc1ccccc1)C(=O)Nc1ccc(S(=O)(=O)NC(C)(C)C)cc1` [Compound I-35, (S)-N-(1-(4-(N-tert-Butylsulfamoyl)phenylamino)-1-oxo-3-phenylpropan-2-yl)-4-fluoro-N-methylbenzamide], the IC50 in assay [1] (setting [5]) is 0.05 to 1 µM and 1 to 10 µM; in assay [3] (setting [7]), 0.05 to 1 µM. Besides, in assay [4], the activity at 1 µM fell in the range of 0 to 25%.

On to `CC(C)(C)NS(=O)(=O)c1ccc(NC[C@H](O)[C@H](Cc2ccccc2)NC(=O)c2ccc(F)cc2)cc1` [Compound I-41, N-((2S,3S)-4-(4-(N-tert-butylsulfamoyl)phenylamino)-3-hydroxy-1-phenylbutan-2-yl)-4-fluorobenzamide], for which the IC50 in assay [1] (setting [5]) and in assay [3] (setting [7]) was 1 to 10 µM each time. Also, the activity at 1 µM in assay [4] lay in the range of 25 to 50%.

`CC(C)(C)NS(=O)(=O)c1ccc(NC(=O)C2Cc3cnccc3CN2C(=O)c2ccc(F)cc2)cc1` (stereo not shown) [Compound I-50, N-(4-(N-tert-butylsulfamoyl)phenyl)-2-(4-fluorobenzoyl)-1,2,3,4-tetrahydro-2,6-naphthyridine-3-carboxamide]: the IC50 in assay [1] (setting [5]) and in assay [3] (setting [7]) was 1 to 10 µM each time. The activity at 1 µM in assay [4] is 50 to 75%.

In the case of `CCNS(=O)(=O)c1ccc(NC(=O)[C@H](Cc2ccccc2)N(C)C(=O)c2ccc(F)cc2)cc1` [Compound I-51, (S)-N-(1-(4-(N-ethylsulfamoyl)phenylamino)-1-oxo-3-phenylpropan-2-yl)-4-fluoro-N-methylbenzamide], the concentration for half-maximal inhibition (IC50) in assay [1] (setting [5]) and in assay [3] (setting [7]) was 1 to 10 µM each time. The activity at 1 µM in assay [4] is over 75%.

For `O=C(N[C@@H](Cc1ccccc1)C(=O)Nc1ccc(S(=O)(=O)NC2COC2)cc1)c1ccc(F)cc1` [Compound I-64, (S)-4-fluoro-N-(1-(4-(N-oxetan-3-ylsulfamoyl)phenylamino)-1-oxo-3-phenylpropan-2-yl)benzamide], the IC50 in assay [1] (setting [5]) is 0.05 to 1 µM; in assay [3] (setting [7]), under 0.05 µM. Further, the activity at 1 µM in assay [4] was 0 to 25%.

For the compound `CN1CC(NS(=O)(=O)c2ccc(NC(=O)[C@H](Cc3ccccc3)NC(=O)c3ccc(F)cc3)cc2)C1` [Compound I-65, (S)-4-fluoro-N-(1-(4-(N-(1-methylazetidin-3-yl)sulfamoyl)phenylamino)-1-oxo-3-phenylpropan-2-yl)benzamide], the IC50 in assay [1] (setting [5]) and in assay [3] (setting [7]) was 0.05 to 1 µM throughout. Further, in assay [4], the activity at 1 µM is 0 to 25%.

Take `O=C(N[C@@H](Cc1cccnc1)C(=O)Nc1ccc(S(=O)(=O)NC2COC2)cc1)c1ccc(F)cc1` [Compound I-66, (S)-4-fluoro-N-(1-(4-(N-oxetan-3-ylsulfamoyl)phenylamino)-1-oxo-3-(pyridin-3-yl)propan-2-yl)benzamide]: the activity at 1 µM in assay [4] lay in the range of 0 to 25%. Besides, the 50% inhibitory concentration (IC50) in assay [3] (setting [7]) lay within 0.05 to 1 µM.

On to `CC(C)(C)NS(=O)(=O)c1cccc(NC(=O)[C@H](Cc2ccccc2)NC(=O)c2ccc(F)cc2)c1` [Compound I-68, (S)-N-(1-(3-(N-tert-butylsulfamoyl)phenylamino)-1-oxo-3-phenylpropan-2-yl)-4-fluorobenzamide], for which the activity at 1 µM in assay [4] is over 75%. Moreover, the IC50 in assay [3] (setting [8]) is over 1 µM.

As for `O=C(N[C@@H](Cc1ccccc1)C(=O)Nc1ccc(S(=O)(=O)NC2CCCC2)cc1)c1cccnc1` [Compound I-80, (S)-N-(1-(4-(N-cyclopentylsulfamoyl)phenylamino)-1-oxo-3-phenylpropan-2-yl)nicotinamide], the IC50 fell in the range of 0.05 to 1 µM in assay [1] (setting [5]), 1 to 10 µM in assay [2] and 0.05 to 1 µM in assay [3] (setting [7]).

Consider `Cc1cc(S(=O)(=O)NC(C)(C)C)ccc1NC(=O)[C@H](Cc1ccccc1)NC(=O)c1ccc(F)cc1` [Compound I-93, (S)-N-(1-(4-(N-tert-butylsulfamoyl)-2-methylphenylamino)-1-oxo-3-phenylpropan-2-yl)-4-fluorobenzamide], for which the IC50 was under 0.05 µM in assay [1] (setting [6]), 0.5 to 1 µM in assay [2] and 0.05 to 1 µM in assay [3] (setting [7]).

As to `O=C(N[C@@H](Cc1ccccc1)C(=O)Nc1ccc(S(=O)(=O)NC23CC(C2)C3)nc1)c1ccc(F)cc1` [Compound I-104, (S)-N-(1-(6-(N-bicyclo[1.1.1]pentan-1-ylsulfamoyl)pyridin-3-ylamino)-1-oxo-3-phenylpropan-2-yl)-4-fluorobenzamide], the IC50 in assay [1] (setting [5]) was 0.05 to 1 µM; in assay [2] it was at most 0.5 µM; in assay [3] (setting [7]) it was under 0.05 µM.

Turning to `O=C(N[C@@H](Cc1ccccc1)C(=O)Nc1ccc(S(=O)(=O)NC2CCOCC2)nc1)c1ccc(F)cc1` [Compound I-107, (S)-4-fluoro-N-(1-oxo-3-phenyl-1-(6-(N-(tetrahydro-2H-pyran-4-yl)sulfamoyl)pyridin-3-ylamino)propan-2-yl)benzamide], the half-maximal inhibitory concentration (IC50) in assay [1] (setting [6]) is under 0.05 µM; in assay [2], 0.5 to 1 µM; in assay [3] (setting [7]), under 0.05 µM.

In the case of `O=C(N[C@@H](Cc1ccccc1)C(=O)Nc1cccc2c(S(=O)(=O)NC3COC3)cccc12)C1CCCCC1` [Compound I-130, (S)-N-(1-(5-(N-oxetan-3-ylsulfamoyl)naphthalen-1-ylamino)-1-oxo-3-phenylpropan-2-yl)cyclohexanecarboxamide], the IC50 is 0.05 to 1 µM in assay [1] (setting [5]), over 10 µM in assay [2] and 0.05 to 1 µM in assay [3] (setting [7]).

As for `O=C(N[C@@H](Cc1ccccc1)C(=O)Nc1ccc(S(=O)(=O)N[C@@H]2CCOC2)cc1)c1ccc(F)cc1` [Compound I-175, 4-fluoro-N-((S)-1-oxo-3-phenyl-1-(4-(N-((R)-tetrahydrofuran-3-yl)sulfamoyl)phenylamino)propan-2-yl)benzamide], the IC50 was under 0.05 µM in assay [1] (setting [6]) and at most 0.5 µM in assay [2].
